Measurements as given in the supplement of paper PMC5579334.

Tests used:
[1] = test system: HS-PSS; assay: relative IC50 (inflection point of fitted dose-response curve, CellTox-Green cytotoxicity, 72 h; top asymptote may be below 50%); higher = less potent
In short: (§1)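 For 72 h at 37 °C, MPNST cell lines and primary human Schwann cells were exposed in 384-well plates to five 10-fold compound dilutions. CellTox-Green, added before seeding at a final 1:1000 dilution, gave fluorescence from DNA released by disrupted cells. Signals were scaled to vehicle and positive-control wells, cultures failing plate quality control were left out, and four-parameter logistic fits were applied. Relative IC50 and drug sensitivity score were derived from the fits, with IC50 censored at the top concentration.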

[2] = test system: HSC2; assay: as above
In short: as §1

[3] = test system: HSC1; assay: as above
In short: as §1

[4] = test system: ST8814; assay: as above
In short: as §1

[5] = test system: HS-PSS; assay: relative IC50 (inflection point of fitted dose-response curve, CellTiter-Glo viability, 72 h; top asymptote may be below 50% inhibition); higher = less potent
In short: (§2)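 MPNST cell lines and primary human Schwann cells were seeded at 750–1000 cells per well into 384-well plates preprinted with each compound at five concentrations in 10-fold steps, then incubated 72 h at 37 °C, 5% CO2. CellTiter-Glo ATP luminescence gave viability, scaled between vehicle and positive-control wells, with duplicates averaged where present. Curves were fitted with a four-parameter logistic model. Percent inhibition refers to the top concentration, while drug sensitivity score and relative IC50, censored at the top concentration, come from these fits.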

[6] = test system: S1507-2; assay: as above
In short: as §2

[7] = test system: STS26T; assay: as above
In short: as §2

[8] = test system: HSC2; assay: as above
In short: as §2

[9] = test system: HSC1; assay: as above
In short: as §2

[10] = test system: S462; assay: as above
In short: as §2

[11] = test system: HS-Sch-2; assay: as above
In short: as §2

[12] = test system: YST-1; assay: as above
In short: as §2

[13] = test system: ST8814; assay: as above
In short: as §2

[14] = test system: STS26T; assay: relative IC50 (inflection point of fitted dose-response curve, CellTox-Green cytotoxicity, 72 h; top asymptote may be below 50%); higher = less potent
In short: as §1

| Compound | relative IC50 [1] | relative IC50 [2] | relative IC50 [3] | relative IC50 [4] | relative IC50 [5] | relative IC50 [6] | relative IC50 [7] | relative IC50 [8] | relative IC50 [9] | relative IC50 [10] | relative IC50 [11] | relative IC50 [12] | relative IC50 [13] | relative IC50 [14] |
| --- | --- | --- | --- | --- | --- | --- | --- | --- | --- | --- | --- | --- | --- | --- |
| NC(=O)c1ccc(I)c([N+](=O)[O-])c1 [Iniparib] | > 10000 nM | > 10000 nM | > 10000 nM | > 10000 nM | > 10000 nM | > 10000 nM | > 10000 nM | > 10000 nM | > 10000 nM | > 10000 nM | > 10000 nM | > 10000 nM | > 10000 nM |  |
| NC(=O)c1cccc2cn(-c3ccc(C4CCCNC4)cc3)nc12 (configuration not stated) [MK-4827] |  | > 10000 nM | > 10000 nM | 3040 nM |  | 1680 nM | 1700 nM |  | 2110 nM | 1400 nM |  |  | 1650 nM |  |
| FC(F)c1nc2ccccc2n1-c1nc(N2CCOCC2)nc(N2CCOCC2)n1 [ZSTK474] | > 10000 nM |  | > 10000 nM | > 10000 nM | 831 nM | 251 nM | 244 nM | 692 nM | 876 nM | 582 nM | 1050 nM | 248 nM | 658 nM |  |
| Nc1ncn([C@@H]2O[C@H](CO)[C@@H](O)[C@H]2O)c(=O)n1 [Azacitidine] | > 10000 nM | > 10000 nM | > 10000 nM | > 10000 nM |  | > 10000 nM | 3840 nM | 3320 nM | 2340 nM | 2580 nM |  |  |  | > 10000 nM |
| Nc1ccn([C@@H]2O[C@H](CO)[C@@H](O)[C@@H]2O)c(=O)n1 [Cytarabine] | 336 nM | 1960 nM | 2180 nM | 786 nM | 479 nM | 1520 nM | 236 nM | 290 nM | 283 nM | 163 nM | 688 nM | 210 nM | 689 nM |  |
| Cn1cc(C[C@@H](N)C(=O)O)c2ccccc21 [1-methyl-D-tryptophan aq] |  | > 5000 nM | > 5000 nM | > 5000 nM |  | > 5000 nM | > 5000 nM | > 5000 nM | > 5000 nM | > 5000 nM |  |  | > 5000 nM |  |
| N#CCNC(=O)c1ccc(-c2ccnc(Nc3ccc(N4CCOCC4)cc3)n2)cc1 [Momelotinib] | > 10000 nM | 3220 nM | 3370 nM | > 10000 nM | 2500 nM | 3760 nM | 3110 nM | 1330 nM | 1410 nM | 2740 nM | 1640 nM | 1300 nM | 1970 nM |  |
| CNC(=O)c1ccc(N2C(=S)N(c3cnc(C#N)c(C(F)(F)F)c3)C(=O)C23CCC3)cc1F [ARN 509] | > 10000 nM | > 10000 nM | > 10000 nM | > 10000 nM |  | > 10000 nM | > 10000 nM | > 10000 nM | > 10000 nM | > 10000 nM |  |  | > 10000 nM |  |
| c1cc(CN2CCCNCCNCCCNCC2)ccc1CN1CCCNCCNCCCNCC1 [Plerixafor aq] |  | 2810 nM | > 10000 nM | > 10000 nM |  | > 10000 nM | > 10000 nM | > 10000 nM | > 10000 nM | > 10000 nM |  |  | > 10000 nM |  |
